Reference: paper PMC12040169 (PLOS Biology, 2025)

Experiment: in vitro
Settings: human, hela cells, % viability

In order of falling viability at 28.5 h, 10 µM:
1. O=C(NCc1ccco1)[C@H]1CN2CCC1C[C@@H]2Cn1cc(CO)nn1 (some centres unmarked) [CBK289080]  113%
2. Cc1nc[nH]c1CN1CCCN(S(=O)(=O)c2ccc(C(F)(F)F)cc2Cl)CC1 [CBK063035]  112%
3. CCOc1cc(OCC)cc(C(=O)N2CCC3(CC2)CC(=O)c2ccc(OCC)c(C)c2O3)c1 [CBK168015]  112%
4. Cc1ccc(CNC(=O)OCCN2CCN(C)CC2)o1 [CBK200205]  112%
5. COc1ccc2c(ccn2CC(=O)NC[C@H]2CC[C@H](C(=O)O)CC2)c1 [CBK286687]  110%
6. COc1ccc(C(CNC(=O)C2C(C(=O)O)C2(C)C)N(C)C)cc1 (centres unmarked) [CBK286700]  110%
7. O=C(NCCCN1CCOCC1)c1ccc(/C=N/O)nc1 [CBK264468]  107%
8. CC(C)(C)NC(=O)Cn1cncc1-c1cnn(-c2ccccc2)c1 [CBK281697]  106%
9. O=C(CSS(=O)(=O)O)NCc1ccccc1 [CBK260897N]  105%
10. CN1CCN(C(=O)c2ccc(Cl)cc2)CC1 [CBK126096]  104%
11. O=C(O)Cc1ccc(Oc2ncc(C(F)(F)F)cc2Cl)cc1 [CBK161657]  104%
12. c1coc(CNc2c(-c3ccco3)nc3cnccn23)c1 [CBK283496]  103%
13. Cc1cc2ccccc2n2c(SCC(=O)NCC3CCCO3)nnc12 (centres unmarked) [CBK265688]  103%
14. CC(Oc1ccccc1)C(=O)Nc1ccc(-c2csc(-c3ccccc3)n2)cc1 (centres unmarked) [CBK268855]  103%
15. CC(=O)N1CCC2(CCCC[C@H]3CN(C(=O)CCC(C)C)CC[C@@H]3NC(=O)CNC2=O)CC1 [CBK292124]  103%
16. CN1CCN(C(c2ccccc2)C(O)C(=O)c2c[nH]c3ccccc23)CC1 (centres unmarked) [CBK267823]  103%
17. O=C(O)c1ccc(NC(=O)c2ccccc2NC(=O)c2cccc(Br)c2)cc1 [CBK265517]  102%
18. COc1cc(CNc2ccc(N3CCCCC3)cc2)cc(Cl)c1OCc1cccs1 [CBK074586]  101%
19. CC1CCCCN1C(=O)C1C2CCC3(CC(=O)c4ccccc4O3)C21 (centres unmarked) [CBK284960]  101%
20. O=S(=O)(c1ccc(C(F)(F)F)cc1Cl)N1CCCN(Cc2ccnc3ccccc23)CC1 [CBK062942]  101%
21. Cc1cc(Cl)c(S(=O)(=O)NCc2cccs2)cc1OCC(N)=O [CBK266496]  101%
22. Cc1cc(C(=O)C(C)Oc2ccc(-c3nnco3)cc2)c(C)n1-c1ccccc1 (centres unmarked) [CBK297104]  101%
23. O=S(=O)(Nc1ccc2[nH]ncc2c1)c1ccc(Br)cc1C(F)(F)F [CBK062529]  100%
24. O=C(CCc1cccnc1)N1CCCc2ccccc21 [CBK200344]  100%
25. Cc1c(-c2cncn2C(C)CN2CCOCC2)[nH]c2ccccc12 (centres unmarked) [CBK281795]  99.9%
26. O=C1CCCN1CC(=O)N1CCCC(c2cc3ccccc3cn2)C1 (centres unmarked) [CBK285091]  99.7%
27. Clc1cccc(-c2cncc(N3CCN(Cc4ccccn4)CC3)n2)c1 [CBK037282]  99.5%
28. COc1cc(CN2CCC(C(=O)c3ccc(F)cc3)CC2)cc(OC)c1OC [CBK149112]  99.5%
29. O=C1CCC(=O)N1CCOc1nccnc1OC1CCN(CCc2ccc3ccccc3c2)CC1 [CBK084358]  99.4%
30. COc1ccc(CCN2CCC(Oc3nccnc3OCc3cccnc3)CC2)cc1OC [CBK083179T]  99%
31. COC(=O)C(NC(=O)c1cnc(-c2cccc(C(F)(F)F)c2)c(-c2ccncc2)c1)c1ccccc1 (centres unmarked) [CBK037624]  98.9%
32. CC(=O)Nc1ccc(S(=O)(=O)Nc2ccc(S(=O)(=O)Nc3cc(C)ccc3C)cc2)cc1 [CBK264745]  98.4%
33. CO/N=C(N)/C(N)=N/OC [CBK019780]  98.4%
34. O=C(CCCN1C(=O)/C(=C\c2cccs2)SC1=S)Nc1cccc(C(=O)O)c1 [CBK263636]  98.4%
35. O=C(O)Cn1c2ccc(Cl)cc2c2nc3ccccc3nc21 [CBK265712]  97.8%
36. Cc1ccc(SCS(=O)(=O)c2ccc(C)cc2)cc1 [CBK026853]  97.8%
37. Cc1ccc(-c2c(N3CCCC3)n[nH]c2C2CC2)cc1 [CBK288192]  97.8%
38. Clc1ccc(CN2CCCN(c3nccc(OCC4COc5ccccc5O4)n3)CC2)cc1Cl (centres unmarked) [CBK083967]  97.3%
39. Cc1ccc(Nc2nc(N)nc(CSCCO)n2)cc1 [CBK265962]  97.1%
40. CCC(NC(=O)c1ccc(C#CC2(O)CCCCC2)cc1)C(=O)O (centres unmarked) [CBK287160]  96.8%
41. O=C(c1ccc([N+](=O)[O-])cc1)n1nc(-c2cccnc2)nc1NCc1ccc(F)cc1 [CBK268962]  96.6%
42. COc1ccc(C(O)c2coc3ccc(O)c(CN(C)C)c23)cc1 (centres unmarked) [CBK263083]  96.4%
43. O=C(Nc1cc2ccccc2c(Br)n1)Nc1ccc(F)cc1C(F)(F)F [CBK063278]  96.3%
44. Cc1cccnc1NC(=O)c1c(O)c2ccccc2n(C)c1=O [CBK261431]  96%
45. CC(=O)c1ccc(-c2cnc(Nc3ccc(N4CCOCC4)cc3)c3nccn23)s1 [CBK091231]  95.3%
46. CN1C(=O)COc2ccccc2CCCC[C@@H]2[C@H]1CCCN2C(=O)CCCn1cncn1 [CBK292182]  95.3%
47. Cn1ncc2c1C(=O)NC1c3ccccc3C(=O)N21 (centres unmarked) [CBK113668]  94.3%
48. CCCS(=O)(=O)Nc1nccnc1N1CCN(c2ccc3c(c2)OCO3)CC1 [CBK048824]  93.6%
49. Cc1ccc2c(c1)N(CCO)/C(=C/c1sc3ccccc3[n+]1CCCS(=O)(=O)[O-])S2 [CBK293965]  93.5%
50. Cc1nc(CN2CCC3(CC2)CN(C(=O)CO)c2ccccc23)cs1 [CBK131523]  93.5%
51. CCCc1nc(CN2CCNC(=O)C2c2ccccc2C(F)(F)F)no1 (centres unmarked) [CBK304123]  93.2%
52. COc1ccc(C2=NNC(=O)c3cc4sccc4n3C2)cc1 [CBK284205]  93.1%
53. O=C(NC(Cc1ccsc1)c1cccnc1)C1CCOCC1 (centres unmarked) [CBK285110]  92.9%
54. COc1ccc(NC(=O)CSc2nsc(SCC(=O)Nc3ccc(OC)cc3)n2)cc1 [CBK008918]  92.5%
55. Cc1ccc(C(=O)Nc2c(C(=O)Nc3cccnc3)cnn2-c2ccccc2)cc1 [CBK263056]  92.4%
56. Cc1c(Br)c([N+](=O)[O-])nn1C(C)C(=O)NCc1ccco1 (centres unmarked) [CBK269108]  92.2%
57. COC(=O)c1ccccc1NC(=O)CCSc1ccc(C)cc1 [CBK265958]  91.9%
58. CS(=O)(=O)Nc1ccc2cc(-c3ccccc3)cnc2n1 [CBK061899]  91.2%
59. Cc1cc(OC(F)(F)F)ccc1NS(=O)(=O)c1cnn(-c2ccccc2)c1C [CBK062354]  91.1%
60. CCN(CC)c1c(C)nc2ccc(C(=O)N(C)CCN(C)C)cn12 [CBK145950]  90.6%
61. N#Cc1c(N)nc2c(c1-c1ccc(Cl)cc1)CCCCCCCCCC2 [CBK262322]  90.6%
62. C/C(O)=C1/C(=O)N(c2nc3ccccc3s2)N=C1CC(=O)O [CBK265828]  90.5%
63. O=C(O)CCCN1C(=O)/C(=C/c2ccccc2[N+](=O)[O-])SC1=S [CBK262801]  90.4%
64. Cc1cc(-c2ccc([N+](=O)[O-])cc2)nc2ccc3ccccc3c12 [CBK263253C]  90.3%
65. Cc1ccc(C(=O)Nc2ccccc2)cc1S(=O)(=O)N1CCN(C)CC1 [CBK270076]  90.2%
66. Cc1nc(OCC(=O)O)c(C#N)c2c1COC(C)(C)C2 [CBK286810]  89.4%
67. Cc1cc(C)c2nc(-n3cncn3)c(C)cc2c1 [CBK025958]  88.9%
68. NC(=O)CCC(NC=O)C(=O)O (centres unmarked) [CBK260967]  88.4%
69. Cn1nccc1CNCc1cc(Br)ccc1Cl [CBK305100]  88.3%
70. Cc1nn(C)c(C)c1CC(=O)Nc1cccc(CN2CCCCC2)c1 [CBK304547]  87.4%
71. CC1(C)CC(=O)C(=CNCC(N)=O)C(=O)C1 [CBK262520]  87.2%
72. CCOC(=O)c1nnc(-c2cccs2)nc1NC1CCCCC1 [CBK018110]  86.8%
73. CC(C)(C)c1ccc(NC(=O)N(Cc2ccccc2C(F)(F)F)CC2CCNCC2)cc1 [CBK049752]  86.7%
74. CC(C)(C)NC(NC(=O)Cc1ccccc1)C(Cl)(Cl)Cl (centres unmarked) [CBK261090]  86.5%
75. Cc1nc2cc(OCc3nc(C(=O)NCC4CCOC4)co3)ccc2s1 (centres unmarked) [CBK307508]  86.1%
76. Cc1ccc2nc3c(cc2c1)CNCC(C)O3 (centres unmarked) [CBK281941]  85.9%
77. COc1ccc(F)cc1S(=O)(=O)Nc1cccc(C)n1 [CBK268842]  84.9%
78. N=C(N)NC(=N)Nc1ccc2c(c1)OCCO2 [CBK021572C]  84.3%
79. CCOC(=O)c1cnn(C2CCCN(Cc3cccn3C)C2)c1 (centres unmarked) [CBK305114]  84.3%
80. Cc1occc1-c1nnc(SCC(=O)c2ccc3c(c2)OCCO3)o1 [CBK268773]  83.5%
81. O=C(NCCOc1ccc(-c2ccc(F)cc2)nn1)c1ccc(Br)o1 [CBK294429]  83.1%
82. Cc1nn(C)c(C)c1OCC(=O)Nc1nc2c(cc1C#N)CCC2 [CBK306371]  81%
83. CCCN1CCC(N2CCN(CCO)CC2)CC1 [CBK261920]  79.9%
84. CCOc1ccc(CN(C)CC(=O)Nc2cc(C)no2)cc1 [CBK305605]  79.8%
85. Cn1cnc2c1c(=O)n(CCCN1C(=O)C3(CC(=O)N(Cc4ccccc4)C3=O)c3cc(F)ccc31)c(=O)n2C (centres unmarked) [CBK075717]  76%
86. CN(C(=O)C1CC1)c1nc2c(s1)CCc1c-2cnn1C [CBK281927]  75.7%
87. Cc1ccccc1OCC(O)CN1CCN(CCN2C(=O)c3cccc4cccc(c34)C2=O)CC1 (centres unmarked) [CBK278321C]  68.9%

Same assay, conditions: human, hela cells, % viability, bulk resorufin, single well

In order of falling viability at 28.5 h, 10 µM:
1. Cc1cn(-c2ccc(OC(=O)NC(C)(C)C)c(Cl)c2)c(=O)n1C [CBK025991]  106%
2. CCc1ccc(N2C(=O)/C(=C/c3ccc(OCC(=O)O)c(Br)c3)C(=O)NC2=S)cc1 [CBK263325]  96.4%
